The source of these data is DBAASP.

Among the test systems are Escherichia coli 363; Klebsiella pneumoniae; Listeria monocytogenes; Bacillus megaterium; Salmonella typhimurium; Aspergillus fumigatus; Bacillus megaterium F04.
Experiment in all cases: ≥ marks a high value that may be exact or a test limit, other limits are often not marked, values filed in µg/mL are converted to µM
The test system of test [1] is Pseudomonas aeruginosa ATCC 27853.
For test [2], the system named is Xanthomonas axonopodis pv. citri.
Test [3] deals with Staphylococcus aureus ATCC 29313.
Test [4] relates to Escherichia coli ATCC 25922.
The test system of test [5] is Staphylococcus haemolyticus.
Test [6] concerns Staphylococcus aureus ATCC 25923.
Test [7] deals with Staphylococcus epidermidis RP62A.
In test [8] the test system is Candida albicans ATCC 90028.
Test [9] concerns Stenotrophomonas maltophilia B32/4.
In test [10] the test system is Escherichia coli ATCC 25726.
Test [11] deals with Staphylococcus epidermidis RP62A/1.
Test [12] concerns Acinetobacter baumannii NM8.
Test [13] has as its system Klebsiella pneumoniae ATCC 700603.
Test [14] concerns Staphylococcus epidermidis ATCC 35984.
Test [15] concerns Staphylococcus aureus ATCC 49230.
The test system of test [16] is Legionella feeleii ATCC 35072.
Test [17] concerns Legionella pneumophila Paris.
Test [18] deals with Legionella bozemanae ATCC 33217.
The test system of test [19] is Legionella pneumophila Corby.
The test system of test [20] is Legionella pneumophila ATCC 33215.
The test system of test [21] is Legionella longbeachae ATCC 33484.
Test [22] has as its system Legionella pneumophila ATCC 33155.
The test system of test [23] is Legionella pneumophila Lens.
Test [24] deals with Legionella oakridgensis ATCC 33761.
For test [25], the system named is Legionella micdadei ATCC 33218.
Test [26] concerns Legionella pneumophila ATCC 33216.
The test system of test [27] is Staphylococcus aureus ATCC BAA-39.
The test system of test [28] is Listeria monocytogenes ATCC 19115.
In test [29] the test system is Klebsiella pneumoniae ATCC 13883.
For test [30], the system named is Staphylococcus aureus ATCC 43300.
The test system of test [31] is Salmonella enterica subsp. enterica serovar Typhimurium ATCC 700408.
In test [32] the test system is Salmonella enterica subsp. enterica serovar Typhimurium ATCC 14028.

≈ marks a conversion by molar mass, not a printed value.

Regarding `CC(C)C[C@H](NC(=O)[C@H](CO)NC(=O)[C@H](CCCCN)NC(=O)[C@H](CC(C)C)NC(=O)[C@H](CCCCN)NC(=O)[C@H](CC(=O)O)NC(=O)[C@H](CC(C)C)NC(=O)[C@H](Cc1c[nH]c2ccccc12)NC(=O)[C@H](C)N)C(=O)NCC(=O)N[C@@H](CCCCN)C(=O)N[C@H](C(=O)N[C@H](C(=O)NCC(=O)O)C(C)C)C(C)C` [AWLDKLKSLGKVVG], the MIC in test [1] was 170 µM (≈ 257 µg/mL); in test [2], 5 µM (≈ 7.57 µg/mL); in test [3], at least 170 µM; in test [4], 85 µM (≈ 129 µg/mL).

Turning to `CC[C@H](C)[C@H](NC(=O)[C@H](CCSC)NC(=O)[C@H](CC(C)C)NC(=O)[C@H](CC(C)C)NC(=O)[C@@H](NC(=O)[C@H](Cc1c[nH]c2ccccc12)NC(=O)[C@H](CC(C)C)NC(=O)[C@H](Cc1c[nH]c2ccccc12)NC(=O)[C@@H](NC(=O)[C@H](CCCCN)NC(=O)[C@H](CO)NC(=O)[C@H](CCCNC(=N)N)NC(=O)[C@H](CC(C)C)NC(=O)CN)[C@@H](C)CC)C(C)C)C(=O)N[C@@H](Cc1c[nH]c2ccccc12)C(=O)N[C@@H](CCC(N)=O)C(=O)N[C@@H](CCC(=O)O)C(=O)N[C@@H](CO)C(=O)N[C@@H](CC(N)=O)C(=O)N[C@@H](CCCCN)C(=O)N[C@@H](Cc1ccccc1)C(=O)N[C@@H](CCCCN)C(=O)N[C@@H](CCCCN)C(=O)N[C@@H](CCSC)C(=O)O` [GLRSKIWLWVLLMIWQESNKFKKM], the MIC in [5] worked out at 12.5 µM (≈ 37.9 µg/mL); against Escherichia coli 363 it was 3.1 µM (≈ 9.41 µg/mL); with Klebsiella pneumoniae, 12.5 µM (≈ 37.9 µg/mL); in the test with Listeria monocytogenes, 0.4 µM (≈ 1.21 µg/mL); in the test with Bacillus megaterium it was 0.4 µM (≈ 1.21 µg/mL); in the test with Salmonella typhimurium, 3.1 µM (≈ 9.41 µg/mL).

`CC[C@H](C)[C@H](N)C(=O)N[C@@H](CC(C)C)C(=O)NCC(=O)N[C@@H](CCCCN)C(=O)N[C@@H](CC(C)C)C(=O)N[C@@H](CC(C)C)C(=O)N[C@@H](CCCCN)C(=O)N[C@H](C(=O)N[C@@H](C)C(=O)N[C@@H](C)C(=O)N[C@@H](CCCCN)C(=O)N[C@@H](CC(C)C)C(=O)N[C@@H](CC(C)C)C(=O)N[C@@H](CO)C(=O)N[C@@H](CC(N)=O)C(=O)N[C@@H](CC(C)C)C(N)=O)[C@@H](C)O` [ILGKLLKTAAKLLSNL]: the MIC in test [6] turned out to be 4 µM (≈ 6.78 µg/mL); in [7] it was 2 µM (≈ 3.39 µg/mL); in test [8], 8 µM (≈ 13.6 µg/mL); in [1], 8 µM (≈ 13.6 µg/mL); in test [9] it was 4 µM (≈ 6.78 µg/mL); in test [10], 16 µM (≈ 27.1 µg/mL). Moreover, the values for the MIC in test [11], in test [12] and in test [13] were 2 µM (≈ 3.39 µg/mL), 4 µM (≈ 6.78 µg/mL) and 16 µM (≈ 27.1 µg/mL), respectively.

As to `CC(C)C[C@H](NC(=O)[C@H](CC(C)C)NC(=O)[C@H](Cc1ccccc1)NC(=O)[C@H](CC(C)C)NC(=O)[C@H](CC(C)C)NC(=O)[C@@H](N)CC(C)C)C(=O)N[C@@H](CCCCN)C(=O)N[C@@H](CCCCN)C(=O)N[C@@H](CCCN=C(N)N)C(=O)N[C@@H](CCCCN)C(=O)N[C@@H](CCCCN)C(=O)N[C@@H](CCCN=C(N)N)C(=O)N[C@@H](CCCCN)C(=O)N[C@@H](Cc1ccc(O)cc1)C(=O)O` [LLLFLLKKRKKRKY], the minimal inhibitory concentration (MIC) in test [14] is 1.08 µM (≈ 2 µg/mL); in test [1], 2.17 µM (≈ 4 µg/mL); in test [15], 2.17 µM (≈ 4 µg/mL); against Aspergillus fumigatus, 3.6 µM (≈ 6.65 µg/mL); in [4] it was 8.66 µM (≈ 16 µg/mL).

In the case of `CC[C@H](C)[C@H](NC(=O)[C@H](CC(C)C)NC(=O)[C@H](CCCCN)NC(=O)[C@@H](NC(=O)[C@H](CC(C)C)NC(=O)[C@H](CC(=O)O)NC(=O)CNC(=O)[C@@H](NC(=O)[C@@H](NC(=O)[C@H](CO)NC(=O)[C@@H](NC(=O)[C@@H](NC(=O)[C@H](CC(=O)O)NC(=O)[C@H](C)NC(=O)[C@H](C)NC(=O)[C@@H](N)CCSC)[C@@H](C)CC)[C@@H](C)CC)[C@@H](C)O)[C@@H](C)CC)C(C)C)C(=O)N[C@H](C(=O)N[C@@H](CC(N)=O)C(=O)N[C@H](C(=O)N[C@H](C(=O)N[C@@H](CCCCN)C(=O)N[C@@H](CCCCN)C(=O)N[C@@H](Cc1ccccc1)C(=O)N[C@@H](CCC(N)=O)C(=O)N[C@@H](CCCCN)C(=O)O)C(C)C)[C@@H](C)O)[C@@H](C)CC` [MAADIISTIGDLVKLIINTVKKFQK], the minimum inhibitory concentration (MIC) stood at 18.1 µM (≈ 50 µg/mL) in test [16]; 4.35 µM (≈ 12 µg/mL) in the test with Bacillus megaterium F04; 18.1 µM (≈ 50 µg/mL) in [17]; 18.1 µM (≈ 50 µg/mL) in test [18]; 18.1 µM (≈ 50 µg/mL) in [19]; 18.1 µM (≈ 50 µg/mL) in [20]. The MIC in test [21] was found to be 18.1 µM (≈ 50 µg/mL); in [22], 18.1 µM (≈ 50 µg/mL); in [23], 1.09 µM (≈ 3 µg/mL); in [24] it was 18.1 µM (≈ 50 µg/mL); in [25], 18.1 µM (≈ 50 µg/mL); in test [26], 18.1 µM (≈ 50 µg/mL).

Take `CC(C)C[C@H](NC(=O)[C@H](CCCN=C(N)N)NC(=O)CNC(=O)[C@H](CCC(N)=O)NC(=O)[C@@H]1CCCN1C(=O)[C@H](CC(C)C)NC(=O)[C@H](CCCCN)NC(=O)[C@H](Cc1ccccc1)NC(=O)[C@@H](NC(=O)[C@@H]1CCCN1C(=O)[C@H](CCC(N)=O)NC(=O)[C@H](CO)NC(=O)[C@H](Cc1ccccc1)NC(=O)[C@H](CCCN=C(N)N)NC(=O)[C@@H](N)CCC(N)=O)[C@@H](C)O)C(=O)N[C@H](C(=O)N[C@@H](CC(C)C)C(=O)N[C@@H](CO)C(=O)N[C@@H](CCCN=C(N)N)C(=O)N[C@@H](CCCCN)C(=O)N[C@@H](Cc1ccccc1)C(=O)O)[C@@H](C)O` [QRFSQPTFKLPQGRLTLSRKF]: the minimum inhibitory concentration (MIC) is at least 39.4 µM in test [27]; 39.4 µM (≈ 100 µg/mL) in [6]; 9.86 µM (≈ 25 µg/mL) in [28]; 9.86 µM (≈ 25 µg/mL) in [29]; 39.4 µM (≈ 100 µg/mL) in test [30]; 9.86 µM (≈ 25 µg/mL) in test [31]. Besides, the MIC in test [32] and in test [4] was 9.86 µM (≈ 25 µg/mL) each time.

What is called MIC is the smallest concentration in the dilution series that meets the test's criterion for growth inhibition.
